# Reference: ChEMBL document CHEMBL1135126, “Identification of novel antifungal nonapeptides through the screening of combinatorial peptide libraries based on a hexapeptide motif” (Bioorg Med Chem Lett, 2002)
# Key:
# Candida albicans = assay: Concentration that substantially inhibit growth of Candida albicans; type: functional, organism-based
# Cryptococcus neoformans = assay: Concentration that substantially inhibit the growth of Cryptococcus neoformans; type: functional
SMILES,MIC (Cryptococcus neoformans) [µM],IC50 (Candida albicans) [µM]
CC[C@H](C)[C@H](NC(=O)[C@@H](Cc1ccccc1)NC(=O)[C@@H](Cc1c[nH]c2ccccc12)NC(=O)[C@@H](N)CCCN=C(N)N)C(=O)N[C@H](Cc1ccccc1)C(=O)N[C@@H](Cc1c[nH]cn1)C(=O)N[C@@H](CCCCN)C(=O)N[C@@H](CCCN=C(N)N)C(=O)NCC(N)=O,2.5,4.48
CC[C@H](C)[C@H](NC(=O)[C@@H](Cc1ccccc1)NC(=O)[C@@H](Cc1c[nH]c2ccccc12)NC(=O)[C@@H](N)CCCN=C(N)N)C(=O)N[C@H](Cc1ccccc1)C(=O)N[C@@H](Cc1c[nH]cn1)C(=O)N[C@@H](CCCCN)C(=O)N[C@@H](CCCN=C(N)N)C(=O)N[C@@H](CCC(=O)O)C(N)=O,4.74,4.23
CC[C@H](C)[C@H](NC(=O)[C@@H](Cc1ccccc1)NC(=O)[C@@H](Cc1c[nH]c2ccccc12)NC(=O)[C@@H](N)CCCN=C(N)N)C(=O)N[C@H](Cc1ccccc1)C(=O)N[C@@H](Cc1c[nH]cn1)C(=O)N[C@@H](CCCCN)C(=O)N[C@@H](CCCCN)C(=O)N[C@H](C(N)=O)[C@@H](C)O,2.44,2.38
CC[C@H](C)[C@H](NC(=O)[C@@H](Cc1ccccc1)NC(=O)[C@@H](Cc1c[nH]c2ccccc12)NC(=O)[C@@H](N)CCCN=C(N)N)C(=O)N[C@H](Cc1ccccc1)C(=O)N[C@@H](Cc1c[nH]cn1)C(=O)N[C@@H](CCCCN)C(=O)N[C@@H](CCCN=C(N)N)C(=O)N[C@@H](CCCN=C(N)N)C(N)=O,4.64,4.15
CC[C@H](C)[C@H](NC(=O)[C@@H](Cc1ccccc1)NC(=O)[C@@H](Cc1c[nH]c2ccccc12)NC(=O)[C@@H](N)CCCN=C(N)N)C(=O)N[C@H](Cc1ccccc1)C(=O)N[C@@H](Cc1c[nH]cn1)C(=O)N[C@@H](CCCCN)C(=O)N[C@@H](CCCN=C(N)N)C(=O)N[C@@H](Cc1c[nH]c2ccccc12)C(N)=O,4.54,6.35
CC[C@H](C)[C@H](NC(=O)[C@@H](Cc1ccccc1)NC(=O)[C@@H](Cc1c[nH]c2ccccc12)NC(=O)[C@@H](N)CCCN=C(N)N)C(=O)N[C@H](Cc1ccccc1)C(=O)N[C@@H](Cc1c[nH]cn1)C(=O)N[C@@H](CCCCN)C(=O)N[C@@H](CCCCN)C(=O)N[C@H](C(N)=O)C(C)C,2.43,3.08
CC[C@H](C)[C@H](NC(=O)[C@@H](Cc1ccccc1)NC(=O)[C@@H](Cc1c[nH]c2ccccc12)NC(=O)[C@@H](N)CCCN=C(N)N)C(=O)N[C@H](Cc1ccccc1)C(=O)N[C@@H](Cc1c[nH]cn1)C(=O)N[C@@H](CCCCN)C(=O)N[C@@H](CCCN=C(N)N)C(=O)N[C@@H](CCC(N)=O)C(N)=O,4.74,3.92
CC[C@H](C)[C@H](NC(=O)[C@@H](Cc1ccccc1)NC(=O)[C@@H](Cc1c[nH]c2ccccc12)NC(=O)[C@@H](N)CCCN=C(N)N)C(=O)N[C@H](Cc1ccccc1)C(=O)N[C@@H](Cc1c[nH]cn1)C(=O)N[C@@H](CCCCN)C(=O)N[C@@H](CCCN=C(N)N)C(=O)N[C@@H](CO)C(N)=O,4.89,4.38
CC[C@H](C)[C@H](NC(=O)[C@@H](Cc1ccccc1)NC(=O)[C@@H](Cc1c[nH]c2ccccc12)NC(=O)[C@@H](N)CCCN=C(N)N)C(=O)N[C@H](Cc1ccccc1)C(=O)N[C@@H](Cc1c[nH]cn1)C(=O)N[C@@H](CCCCN)C(=O)N[C@@H](CCCN=C(N)N)C(=O)N[C@@H](CC(=O)O)C(N)=O,4.79,7.71

# Further lines, with some results ahead:
MIC (Cryptococcus neoformans) [µM],SMILES,IC50 (Candida albicans) [µM]
2.37,CC[C@H](C)[C@H](NC(=O)[C@@H](Cc1ccccc1)NC(=O)[C@@H](Cc1c[nH]c2ccccc12)NC(=O)[C@@H](N)CCCN=C(N)N)C(=O)N[C@H](Cc1ccccc1)C(=O)N[C@@H](Cc1c[nH]cn1)C(=O)N[C@@H](CCCCN)C(=O)N[C@@H](CCCCN)C(=O)N[C@@H](CCC(N)=O)C(N)=O,2.58
2.35,CC[C@H](C)[C@H](NC(=O)[C@@H](Cc1ccccc1)NC(=O)[C@@H](Cc1c[nH]c2ccccc12)NC(=O)[C@@H](N)CCCN=C(N)N)C(=O)N[C@H](Cc1ccccc1)C(=O)N[C@@H](Cc1c[nH]cn1)C(=O)N[C@@H](CCCCN)C(=O)N[C@@H](CCCN=C(N)N)C(=O)N[C@@H](Cc1c[nH]cn1)C(N)=O,4.11
2.39,CC[C@H](C)[C@H](NC(=O)[C@@H](Cc1ccccc1)NC(=O)[C@@H](Cc1c[nH]c2ccccc12)NC(=O)[C@@H](N)CCCN=C(N)N)C(=O)N[C@H](Cc1ccccc1)C(=O)N[C@@H](Cc1c[nH]cn1)C(=O)N[C@@H](CCCCN)C(=O)N[C@@H](CCCN=C(N)N)C(=O)N[C@@H](CC(C)C)C(N)=O,4.37
2.4,CC[C@H](C)[C@H](NC(=O)[C@@H](Cc1ccccc1)NC(=O)[C@@H](Cc1c[nH]c2ccccc12)NC(=O)[C@@H](N)CCCN=C(N)N)C(=O)N[C@H](Cc1ccccc1)C(=O)N[C@@H](Cc1c[nH]cn1)C(=O)N[C@@H](CCCCN)C(=O)N[C@@H](CCCCN)C(=O)N[C@@H](CC(C)C)C(N)=O,2.18
2.4,CC[C@H](C)[C@H](NC(=O)[C@H](CCCCN)NC(=O)[C@H](CCCCN)NC(=O)[C@H](Cc1c[nH]cn1)NC(=O)[C@@H](Cc1ccccc1)NC(=O)[C@@H](NC(=O)[C@@H](Cc1ccccc1)NC(=O)[C@@H](Cc1c[nH]c2ccccc12)NC(=O)[C@@H](N)CCCN=C(N)N)[C@@H](C)CC)C(N)=O,1.65
2.37,CC[C@H](C)[C@H](NC(=O)[C@@H](Cc1ccccc1)NC(=O)[C@@H](Cc1c[nH]c2ccccc12)NC(=O)[C@@H](N)CCCN=C(N)N)C(=O)N[C@H](Cc1ccccc1)C(=O)N[C@@H](Cc1c[nH]cn1)C(=O)N[C@@H](CCCCN)C(=O)N[C@@H](CCCCN)C(=O)N[C@@H](CCCCN)C(N)=O,1.83
2.36,CC[C@H](C)[C@H](NC(=O)[C@@H](Cc1ccccc1)NC(=O)[C@@H](Cc1c[nH]c2ccccc12)NC(=O)[C@@H](N)CCCN=C(N)N)C(=O)N[C@H](Cc1ccccc1)C(=O)N[C@@H](Cc1c[nH]cn1)C(=O)N[C@@H](CCCCN)C(=O)N[C@@H](CCCN=C(N)N)C(=O)N[C@@H](CCCCN)C(N)=O,3.34
2.39,CC[C@H](C)[C@H](NC(=O)[C@@H](Cc1ccccc1)NC(=O)[C@@H](Cc1c[nH]c2ccccc12)NC(=O)[C@@H](N)CCCN=C(N)N)C(=O)N[C@H](Cc1ccccc1)C(=O)N[C@@H](Cc1c[nH]cn1)C(=O)N[C@@H](CCCCN)C(=O)N[C@@H](CCCN=C(N)N)C(=O)N[C@@H](CC(N)=O)C(N)=O,4.64
